Test results reported in patent publication US20130225830A1, “POLYMORPHS OF FEBUXOSTAT” (MAPI PHARMA LIMITED, priority 2010, published 2013).
“And” between values parts separate entries of the source, which are not always exact repeats. Equal values may be shown once.

Assay: Solid stability measurements (appearance, assay and total related substances by HPLC)
Type: physicochemical
Conditions: for change of assay and TRS (in words): 60° C./75% RH at end of the first and second weeks; for Remaining (%): one value for both samples, vs −20° C. control; for Appearance / TRS (%): samples 1 and 2
Experimental: The detailed chromatographic conditions are listed hereinbelow. The typical retention time of febuxostat main peak is 8.2 min. [table] Testing conditions: 40° C., 60° C., 40° C./RH 75%, 60° C./RH 75%, light Testing procedure: About 3 mg of a febuxostat form were weighed in a glass vial and stored under the different conditions for 1 week and 2 weeks, separately. The same febuxostat form was stored at −20° C. as control. The test was conducted in duplication. The physical appearance, assay and total related substances of each of the febuxostat forms were measured by HPLC at the end of the first and second weeks.

## Cc1nc(-c2ccc(OCC(C)C)c(C#N)c2)sc1C(=O)O [Form IX, 2-(3-cyano-4-isobutoxyphenyl)-4-methyl-5-thiazolecarboxylic acid]
40° C., 60° C., 40° C./75% RH
  change of assay and TRS (in words): no significant change
40° C., 7 d
  Remaining (%): 99.70%
  Appearance: No change
  TRS (%): 1.28% and 1.30%
40° C., 14 d
  Remaining (%): 100.02%
  Appearance: No change
  TRS (%): 1.29% and 1.32%
40° C./75% RH, 7 d
  Remaining (%): 100.47%
  Appearance: No change
  TRS (%): 1.34% and 1.31%
40° C./75% RH, 14 d
  Remaining (%): 99.47%
  Appearance: No change
  TRS (%): 1.35% and 1.33%
60° C., 7 d
  Remaining (%): 100.80%
  Appearance: No change
  TRS (%): 1.37% and 1.35%
60° C., 14 d
  Remaining (%): 100.41%
  Appearance: No change
  TRS (%): 1.38% and 1.35%
60° C./75% RH, 7 d
  Remaining (%): 100.89%
  Appearance: No change
  TRS (%): 1.33%
60° C./75% RH, 14 d
  Remaining (%): 100.07%
  Appearance: No change
  TRS (%): 1.35% and 1.33%
Light, 7 d
  Remaining (%): 97.50%
  Appearance: Light yellow
  TRS (%): 3.07% and 3.05%
Light, 14 d
  Remaining (%): 92.81%
  Appearance: Light yellow
  TRS (%): 6.30% and 6.54%
−20° C. (control), 7 d
  Appearance: No change
  TRS (%): 1.23% and 1.22%
−20° C. (control), 14 d
  Appearance: No change
  TRS (%): 1.24% and 1.23%

## Cc1nc(-c2ccc(OCC(C)C)c(C#N)c2)sc1C(=O)O [Form V, 2-(3-cyano-4-isobutoxyphenyl)-4-methyl-5-thiazolecarboxylic acid]
40° C., 60° C., 40° C./75% RH
  change of assay and TRS (in words): no significant change
40° C., 7 d
  Remaining (%): 100.62%
  Appearance: No change
  TRS (%): 0.45%
40° C., 14 d
  Remaining (%): 100.01%
  Appearance: No change
  TRS (%): 0.46% and 0.47%
40° C./75% RH, 7 d
  Remaining (%): 99.40%
  Appearance: No change
  TRS (%): 0.47% and 0.48%
40° C./75% RH, 14 d
  Remaining (%): 99.03%
  Appearance: No change
  TRS (%): 0.50% and 0.52%
60° C., 7 d
  Remaining (%): 100.65%
  Appearance: No change
  TRS (%): 0.53% and 0.51%
60° C., 14 d
  Remaining (%): 100.06%
  Appearance: No change
  TRS (%): 0.54% and 0.53%
60° C./75% RH, 7 d
  Remaining (%): 98.20%
  Appearance: No change
  TRS (%): 0.51% and 0.52%
60° C./75% RH, 14 d
  Remaining (%): 98.87%
  Appearance: No change
  TRS (%): 0.52% and 0.53%
Light, 7 d
  Remaining (%): 97.74%
  Appearance: Light yellow
  TRS (%): 1.02% and 1.18%
Light, 14 d
  Remaining (%): 94.06%
  Appearance: Light yellow
  TRS (%): 5.99% and 5.08%
−20° C. (control), 7 d
  Appearance: No change
  TRS (%): 0.40% and 0.39%
−20° C. (control), 14 d
  Appearance: No change
  TRS (%): 0.42% and 0.41%

## Cc1nc(-c2ccc(OCC(C)C)c(C#N)c2)sc1C(=O)O [Form XI, 2-(3-cyano-4-isobutoxyphenyl)-4-methyl-5-thiazolecarboxylic acid]
40° C., 60° C., 40° C./75% RH
  change of assay and TRS (in words): no significant change
40° C., 7 d
  Remaining (%): 99.02%
  Appearance: No change
  TRS (%): 1.25% and 1.24%
40° C., 14 d
  Remaining (%): 100.12%
  Appearance: No change
  TRS (%): 1.26% and 1.27%
40° C./75% RH, 7 d
  Remaining (%): 99.02%
  Appearance: No change
  TRS (%): 1.28%
40° C./75% RH, 14 d
  Remaining (%): 100.75%
  Appearance: No change
  TRS (%): 1.30% and 1.29%
60° C., 7 d
  Remaining (%): 98.56%
  Appearance: No change
  TRS (%): 1.31% and 1.30%
60° C., 14 d
  Remaining (%): 99.72%
  Appearance: No change
  TRS (%): 1.33%
60° C./75% RH, 7 d
  Remaining (%): 98.44%
  Appearance: No change
  TRS (%): 1.33% and 1.31%
60° C./75% RH, 14 d
  Remaining (%): 99.82%
  Appearance: No change
  TRS (%): 1.35% and 1.36%
Light, 7 d
  Remaining (%): 96.26%
  Appearance: Light yellow
  TRS (%): 1.86% and 2.09%
Light, 14 d
  Remaining (%): 95.06%
  Appearance: Light yellow
  TRS (%): 4.88% and 4.32%
−20° C. (control), 7 d
  Appearance: No change
  TRS (%): 1.22%
−20° C. (control), 14 d
  Appearance: No change
  TRS (%): 1.23%
